Target: T1, Kv1.5 potassium channel (Homo sapiens, UniProt P22460)
T1 construct: expressed in transfected cells
Experiment: Patch clamp, CHO cells stably expressing Kv1.5
Type: cell-based
Protocol: The cDNA coding for Kv1.5 (GenBank Acc. No. M55513) was cloned into the pcDNA6-vector (Invitrogen, Leek, Netherlands). A C-terminal epitope-tag was introduced via PCR. The plasmid was sequenced and subsequently introduced into cells. Clonal cell lines stably expressing the Kv1.5 channel were established. Expression of protein was analysed by means of immunofluorescence using antibodies directed against the epitope-tag. The functional expression of the ion channels was validated electrophysiologically.
The experiments were performed using CHO cells stably expressing the Kv 1.5 potassium channel.
Cells were grown at 37° C. and 5% CO2 in 25 ml flasks (Greiner Bioone, Cellstar, Cat. No. 690160) in 6 ml MEM ALPHA Medium (Sigma, Taufkirchen, Germany, Cat No M8042) supplemented with 10% (v/v) heat inactivated fetal calf serum (Sigma, Cat. No. F9665), 1% (v/v) P/S/G-solution (Sigma, Cat. No. G6784) and G-418 (750 μg per millilitre medium; Sigma, Germany, Cat. No. A1720; 50 mg/ml in water, Sigma, Germany, Cat. No. W3500).
From a HP of −60 mV cells were hyperpolarised for 100 ms to −70 mV, followed by a 500 ms depolarisation to +50 mV. The current amplitude at the end of the test pulse to +50 mV was used for the analysis. Pulse cycling rate was 10 s (0.1 Hz).
The application protocol of test compounds is depicted in FIG. 4. The first 14 stimuli were required to achieve steady state of the current amplitude. Unspecific current reduction was calculated and served for correcting procedures during data analysis. After the 14th stimulus the test compound application was started (indicated by an arrow) via teflon and silicone tubings and was assumed to reach the cell after 6 additional stimuli. The perfusion is adjusted by using a defined drop rate of 10 drops per 10-12 s. Up to three concentrations were applied successively to one cell followed by a wash period of 5 minutes. Total number of stimuli was 140. Effect of the test compound was analysed between stimulus nos. 21 and 50 (5 min., long dashed line) for the first concentration, between stimulus nos. 51 and 80 (5 min., short dashed line) for an additional 5 minutes. If the cell was still stable, a wash was added afterwards. Start of test compound application at the given concentration is indicated by arrows. Number of stimuli of each single episode are shown in the protocol of FIG. 4.
Vehicle (DMSO) control experiments were performed during study period and under identical conditions to verify the stability of current over time and to value cell condition.
The effects of the test compounds were investigated at one concentration (2 or 1 μM) on the Kv1.5-mediated potassium channel.

[1] = concentration cell empty (text: 2 or 1 μM)

T1 sequence (P22460 whole entry): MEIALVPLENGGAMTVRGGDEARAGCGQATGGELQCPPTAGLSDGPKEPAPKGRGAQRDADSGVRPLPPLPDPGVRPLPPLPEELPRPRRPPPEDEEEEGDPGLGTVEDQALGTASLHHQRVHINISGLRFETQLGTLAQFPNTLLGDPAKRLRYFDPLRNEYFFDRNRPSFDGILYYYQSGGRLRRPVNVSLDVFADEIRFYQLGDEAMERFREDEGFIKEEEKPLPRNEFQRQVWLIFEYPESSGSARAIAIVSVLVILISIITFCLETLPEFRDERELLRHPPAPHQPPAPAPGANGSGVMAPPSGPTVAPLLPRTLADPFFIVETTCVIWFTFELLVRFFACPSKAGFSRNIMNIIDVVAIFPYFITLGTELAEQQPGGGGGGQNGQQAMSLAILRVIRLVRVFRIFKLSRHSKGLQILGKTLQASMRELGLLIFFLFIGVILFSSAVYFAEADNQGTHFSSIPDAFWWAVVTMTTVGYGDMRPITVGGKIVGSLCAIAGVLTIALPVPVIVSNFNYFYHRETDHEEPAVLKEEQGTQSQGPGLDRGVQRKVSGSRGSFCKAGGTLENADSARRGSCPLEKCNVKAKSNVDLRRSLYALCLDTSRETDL

Relative remaining current (mean after 8-10 min) (2 μM, fraction, % in brackets)	Relative remaining current (mean after 5 min) (2 μM, fraction, % in brackets)	Relative remaining current (mean after 8-10 min) [1]	Molecule
0.66 (66%)	0.88 (88%)		5-chloro-benzofuran-2- carboxylic acid 2,4- dimethoxy- benzylamide [Compound 2]
		82%	O=C(NCc1ccc(OC(F)(F)F)cc1)c1cc2cc(Cl)ccc2o1 [Compound 89, 5-chloro-benzofuran-2-carboxylic acid 4-trifluoromethoxy-benzylamide]
		89%	Cc1c(C(=O)NCc2ccc(F)c(C(F)(F)F)c2)sc2ccc(Cl)cc12 [Compound 107, 5-chloro-3-methyl-benzo[b]thiophene-2-carboxylic acid 4-fluoro-3-trifluoromethyl-benzylamide]

Reference: patent US20080039442A1, “Compounds With Kv4 Ion Channel Activity” (Devgen NV, priority 2004, published 2008)
